Assay results as given in patent publication US20230405028A1 (priority 2020, published 2023).
Where two headings read alike, the source gives them in different places.

Key:
iNOS = iNOS in HSIEC cells treated with TNF-α/IFN-γ; format: cell-based, human; details: 5, 10, 20, 40 μM
COX-2 = COX-2 in HSIEC cells treated with TNF-α/IFN-γ (western blot, densitometry); format: cell-based, human; details: single agent, escalating doses
Method: Cell Culture: Human primary small intestinal epithelial cells (HSIEC), purchased from Cell Biologics were cultured in Epithelial Cell Medium/w Kit. HSIEC cells were incubated at 37° C. in a humidified atmosphere of 5% CO2. HSIEC cells were treated with mycoplasma removal reagent BM-Cyclin (Roche) to ensure mycoplasma negative before treatment.
To do so, COX-2, an enzyme which mediates the bioconversion of arachidonic acid to inflammatory prostaglandins (PGs), was measured via densitometry. GAPDH was used as a reference housekeeping marker for relative densitometry measures. […] Ethanol or DMSO was used, as indicated in the figures, as a vehicle for dilution and as a negative control showing the amount of the inflammatory marker present when inflammation was not induced.
Increasing doses of each molecule of interest, or each combination of molecules of interest, were then distributed to the HSIEC cells treated to induce inflammatory response. Inflammatory markers COX-2 and/or IL-6 were assessed at specific timepoints after induction of inflammation for protein content marker measured via western blot. GAPDH was used as a reference housekeeping marker for relative densitometry measures of protein content.

[1] = system: Human primary small intestinal epithelial cells (HSIEC)
5HT2A = 5HT2A (Homo sapiens, UniProt P28223); details: printed with a question mark in the Average Dose column; cited from earlier work
A-172 glioblastoma cells = assay: MTT cell viability assay in A-172 cells; details: Psilocybin + Eugenol section, 25 μM EUG
TRPA1 = TRPA1 overexpressing CHO cells and trigeminal neurons; cited from earlier work
anandamide levels = details: chronic, but not acute, administration of 150 mg/kg (Smalheiser, 2019); cited from earlier work

Sequence of 5HT2A (P28223 whole entry): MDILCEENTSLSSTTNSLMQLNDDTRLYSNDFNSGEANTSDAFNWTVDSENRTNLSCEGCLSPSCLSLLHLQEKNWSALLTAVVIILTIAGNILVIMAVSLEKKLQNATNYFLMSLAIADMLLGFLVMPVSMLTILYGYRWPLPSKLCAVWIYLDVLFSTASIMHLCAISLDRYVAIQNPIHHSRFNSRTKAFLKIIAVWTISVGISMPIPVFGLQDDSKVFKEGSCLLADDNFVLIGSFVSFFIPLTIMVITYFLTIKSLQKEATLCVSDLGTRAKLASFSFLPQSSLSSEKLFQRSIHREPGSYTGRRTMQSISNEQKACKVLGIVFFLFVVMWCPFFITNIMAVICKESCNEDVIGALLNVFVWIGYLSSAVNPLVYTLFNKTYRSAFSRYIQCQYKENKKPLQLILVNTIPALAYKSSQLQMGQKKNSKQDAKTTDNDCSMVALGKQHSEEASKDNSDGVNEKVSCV

CC(=O)Oc1cccc2[nH]cc(CCN(C)C)c12 [4-ACO-DMT, 3-[2-(dimethylamino)ethyl]-4-acetoxyindole]
dose reducing iNOS to the greatest extent (iNOS): 10 µM | doses resulting in reduction of iNOS (iNOS): all doses | doses reducing COX-2 to the greatest extent (COX-2): 40 µM | effect on cell growth / cellular metabolic activity (MTT, words) [1]: increase growth of cells

CCN(C(=O)[C@@H]1C=C2c3cccc4[nH]cc(c34)C[C@H]2N(C)C1)C1CC1 [ECPLA, D-N-ethyl-N-cyclopropyllysergamide]
potency of LSD (5HT2A): 40% potency % potency of LSD

C=CCc1ccc(O)c(OC)c1 [EUG]
Cellular Metabolic Activity (A-172 glioblastoma cells; 24 h): 0.202 | Cellular Metabolic Activity (A-172 glioblastoma cells; 48 h): 0.297 | Cellular Metabolic Activity (A-172 glioblastoma cells; 72 h): 0.473 | Cellular Metabolic Activity (A-172 glioblastoma cells; 96 h): 0.319 | Cellular Metabolic Activity (A-172 glioblastoma cells; time 0): 0.134

CCC(CC)NC(=O)[C@@H]1C=C2c3cccc4[nH]cc(c34)C[C@H]2N(C)C1 [LSP, D-lysergic acid 3-pentyl amide]
potency of LSD (5HT2A): 75% potency % potency of LSD

CCCCCc1cc(O)c2c(c1)OC(C)(C)[C@@H]1CCC(C)=C[C@@H]21 [THC, delta-9-tetrahydrocannabinol]
TRPA1 activation (TRPA1): activate TRPA1

CCCCCc1cc(O)c2c(c1)OC(C)(C)c1ccc(C)cc1-2 [cannabinol]
TRPA1 activation (TRPA1): activate TRPA1

COc1cc(CNC(=O)CCCC/C=C/C(C)C)ccc1O [capsaicin]
effect on cell growth / cellular metabolic activity (MTT, words) [1]: All initial doses of capsaicin were found to be inhibitory | Cellular Metabolic Activity ([1]; 0.5 μM, 24 h): 0.088 | Cellular Metabolic Activity ([1]; 0.5 μM, 48 h): 0.154 | Cellular Metabolic Activity ([1]; 0.5 μM, 72 h): 0.288 | Cellular Metabolic Activity ([1]; 0.5 μM, 96 h): 0.469 | Cellular Metabolic Activity ([1]; 0.5 μM, time 0): 0.068 | Cellular Metabolic Activity ([1]; 1 μM, 24 h): 0.084 | Cellular Metabolic Activity ([1]; 1 μM, 48 h): 0.150 | Cellular Metabolic Activity ([1]; 1 μM, 72 h): 0.326 | Cellular Metabolic Activity ([1]; 1 μM, 96 h): 0.502 | Cellular Metabolic Activity ([1]; 1 μM, time 0): 0.066 | Cellular Metabolic Activity ([1]; 5 μM, 24 h): 0.080 | Cellular Metabolic Activity ([1]; 5 μM, 48 h): 0.148 | Cellular Metabolic Activity ([1]; 5 μM, 72 h): 0.296 | Cellular Metabolic Activity ([1]; 5 μM, 96 h): 0.477 | Cellular Metabolic Activity ([1]; 5 μM, time 0): 0.068 | Cellular Metabolic Activity ([1]; 10 μM, 24 h): 0.075 | Cellular Metabolic Activity ([1]; 10 μM, 48 h): 0.174 | Cellular Metabolic Activity ([1]; 10 μM, 72 h): 0.331 | Cellular Metabolic Activity ([1]; 10 μM, 96 h): 0.708 | Cellular Metabolic Activity ([1]; 10 μM, time 0): 0.040 | Cellular Metabolic Activity ([1]; 50 μM, 24 h): 0.062 | Cellular Metabolic Activity ([1]; 50 μM, 48 h): 0.155 | Cellular Metabolic Activity ([1]; 50 μM, 72 h): 0.292 | Cellular Metabolic Activity ([1]; 50 μM, 96 h): 0.681 | Cellular Metabolic Activity ([1]; 50 μM, time 0): 0.036 | Cellular Metabolic Activity ([1]; 100 μM, 24 h): 0.063 | Cellular Metabolic Activity ([1]; 100 μM, 48 h): 0.150 | Cellular Metabolic Activity ([1]; 100 μM, 72 h): 0.272 | Cellular Metabolic Activity ([1]; 100 μM, 96 h): 0.623 | Cellular Metabolic Activity ([1]; 100 μM, time 0): 0.036 | Cellular Metabolic Activity ([1]; 200 μM, 24 h): 0.044 | Cellular Metabolic Activity ([1]; 200 μM, 48 h): 0.082 | Cellular Metabolic Activity ([1]; 200 μM, 72 h): 0.144 | Cellular Metabolic Activity ([1]; 200 μM, 96 h): 0.231 | Cellular Metabolic Activity ([1]; 200 μM, time 0): 0.040 | Cellular Metabolic Activity ([1]; 400 μM, 24 h): 0.016 | Cellular Metabolic Activity ([1]; 400 μM, 48 h): 0.031 | Cellular Metabolic Activity ([1]; 400 μM, 72 h): 0.016 | Cellular Metabolic Activity ([1]; 400 μM, 96 h): 0.018 | Cellular Metabolic Activity ([1]; 400 μM, time 0): 0.039 | Cellular Metabolic Activity ([1]; 800 μM, 24 h): 0 | Cellular Metabolic Activity ([1]; 800 μM, 48 h): 0 | Cellular Metabolic Activity ([1]; 800 μM, 72 h): 0 | Cellular Metabolic Activity ([1]; 800 μM, 96 h): 0 | Cellular Metabolic Activity ([1]; 800 μM, time 0): 0.041 | doses showing no effect (MTT) ([1]; human): < 10 µM

COc1cc(/C=C/C(=O)CC(=O)/C=C/c2ccc(O)c(OC)c2)ccc1O [curcumin, (1E,6E)-1,7-bis(4-hydroxy-3-methoxyphenyl) hepta-1,6-diene-3,5-dione]
anandamide levels in a variety of brain regions (anandamide levels): significantly raised | Cellular Metabolic Activity ([1]; 1 μM, 24 h): 0.086 | Cellular Metabolic Activity ([1]; 1 μM, 48 h): 0.184 | Cellular Metabolic Activity ([1]; 1 μM, 72 h): 0.375 | Cellular Metabolic Activity ([1]; 1 μM, 96 h): 0.611 | Cellular Metabolic Activity ([1]; 1 μM, time 0): 0.040 | Cellular Metabolic Activity ([1]; 5 μM, 24 h): 0.079 | Cellular Metabolic Activity ([1]; 5 μM, 48 h): 0.148 | Cellular Metabolic Activity ([1]; 5 μM, 72 h): 0.299 | Cellular Metabolic Activity ([1]; 5 μM, 96 h): 0.595 | Cellular Metabolic Activity ([1]; 5 μM, time 0): 0.036 | Cellular Metabolic Activity ([1]; 10 μM, 24 h): 0.070 | Cellular Metabolic Activity ([1]; 10 μM, 48 h): 0.115 | Cellular Metabolic Activity ([1]; 10 μM, 72 h): 0.215 | Cellular Metabolic Activity ([1]; 10 μM, 96 h): 0.466 | Cellular Metabolic Activity ([1]; 10 μM, time 0): 0.036 | Cellular Metabolic Activity ([1]; 20 μM, 24 h): 0.059 | Cellular Metabolic Activity ([1]; 20 μM, 48 h): 0.057 | Cellular Metabolic Activity ([1]; 20 μM, 72 h): 0.060 | Cellular Metabolic Activity ([1]; 20 μM, 96 h): 0.038 | Cellular Metabolic Activity ([1]; 20 μM, time 0): 0.040 | Cellular Metabolic Activity ([1]; 40 μM, 24 h): 0.038 | Cellular Metabolic Activity ([1]; 40 μM, 48 h): 0.026 | Cellular Metabolic Activity ([1]; 40 μM, 72 h): 0.014 | Cellular Metabolic Activity ([1]; 40 μM, 96 h): 0.00 | Cellular Metabolic Activity ([1]; 40 μM, time 0): 0.039 | Cellular Metabolic Activity ([1]; 80 μM, 24 h): 0.042 | Cellular Metabolic Activity ([1]; 80 μM, 48 h): 0.019 | Cellular Metabolic Activity ([1]; 80 μM, 72 h): 0.018 | Cellular Metabolic Activity ([1]; 80 μM, 96 h): 0.005 | Cellular Metabolic Activity ([1]; 80 μM, time 0): 0.041

O=C(c1ccc(F)cc1)C1CCN(CCn2c(=O)[nH]c3ccccc3c2=O)CC1 [ketanserin, reference compound]
doses resulting in reduction of COX-2 (COX-2): none of the doses | concentration above which inhibitory effect / significant toxicity (MTT) ([1]; human): above 20 μM

O=C(/C=C/C=C/c1ccc2c(c1)OCO2)N1CCCCC1 [piperine]
doses reducing COX-2 to the greatest extent (COX-2): 2.5 µM | effect on cell growth / cellular metabolic activity (MTT, words) [1]: could only be studied at very low dose | Cellular Metabolic Activity ([1]; 5 μM, 24 h): 0.077 | Cellular Metabolic Activity ([1]; 5 μM, 48 h): 0.170 | Cellular Metabolic Activity ([1]; 5 μM, 72 h): 0.278 | Cellular Metabolic Activity ([1]; 5 μM, 96 h): 0.517 | Cellular Metabolic Activity ([1]; 5 μM, time 0): 0.035 | Cellular Metabolic Activity ([1]; 10 μM, 24 h): 0.073 | Cellular Metabolic Activity ([1]; 10 μM, 48 h): 0.183 | Cellular Metabolic Activity ([1]; 10 μM, 72 h): 0.271 | Cellular Metabolic Activity ([1]; 10 μM, 96 h): 0.438 | Cellular Metabolic Activity ([1]; 10 μM, time 0): 0.026 | Cellular Metabolic Activity ([1]; 20 μM, 24 h): 0.075 | Cellular Metabolic Activity ([1]; 20 μM, 48 h): 0.166 | Cellular Metabolic Activity ([1]; 20 μM, 72 h): 0.268 | Cellular Metabolic Activity ([1]; 20 μM, 96 h): 0.445 | Cellular Metabolic Activity ([1]; 20 μM, time 0): 0.022 | Cellular Metabolic Activity ([1]; 40 μM, 24 h): 0.069 | Cellular Metabolic Activity ([1]; 40 μM, 48 h): 0.169 | Cellular Metabolic Activity ([1]; 40 μM, 72 h): 0.226 | Cellular Metabolic Activity ([1]; 40 μM, 96 h): 0.423 | Cellular Metabolic Activity ([1]; 40 μM, time 0): 0.025 | Cellular Metabolic Activity ([1]; 80 μM, 24 h): 0.068 | Cellular Metabolic Activity ([1]; 80 μM, 48 h): 0.171 | Cellular Metabolic Activity ([1]; 80 μM, 72 h): 0.224 | Cellular Metabolic Activity ([1]; 80 μM, 96 h): 0.391 | Cellular Metabolic Activity ([1]; 80 μM, time 0): 0.026 | Cellular Metabolic Activity ([1]; 100 μM, 24 h): 0.071 | Cellular Metabolic Activity ([1]; 100 μM, 48 h): 0.175 | Cellular Metabolic Activity ([1]; 100 μM, 72 h): 0.248 | Cellular Metabolic Activity ([1]; 100 μM, 96 h): 0.410 | Cellular Metabolic Activity ([1]; 100 μM, time 0): 0.030 | Cellular Metabolic Activity ([1]; 200 μM, 24 h): 0.071 | Cellular Metabolic Activity ([1]; 200 μM, 48 h): 0.171 | Cellular Metabolic Activity ([1]; 200 μM, 72 h): 0.243 | Cellular Metabolic Activity ([1]; 200 μM, 96 h): 0.426 | Cellular Metabolic Activity ([1]; 200 μM, time 0): 0.027 | Cellular Metabolic Activity ([1]; 400 μM, 24 h): 0.068 | Cellular Metabolic Activity ([1]; 400 μM, 48 h): 0.191 | Cellular Metabolic Activity ([1]; 400 μM, 72 h): 0.187 | Cellular Metabolic Activity ([1]; 400 μM, 96 h): 0.255 | Cellular Metabolic Activity ([1]; 400 μM, time 0): 0.031
